For assay [1], the system named is N. gonorrhoeae FA1090. The assay can be described thus: Liquid broth MIC in Fastidious broth. The note with it: Neisseria gonorrhoeae, FA1090, read-out: Minimum Inhibitory Concentration, FA 1090.
For assay [2], the system named is B. humptydooensis ATCC BAA-2767. The assay can be described thus: microbe, parasite or virus in culture. Format: cell-based. The note with it: Burkholderia humptydooensis, ATCCBAA2767, read-out: Minimum inhibitory concentration (MIC), B. humptydooensis ATCC BAA-2767.
For assay [3], the system named is N. gonorrhoeae WHO L. The assay can be described thus: Liquid broth MIC in Fastidious broth. The note with it: Neisseria gonorrhoeae, read-out: Minimum Inhibitory Concentration, WHO L.
Assay [4] deals with P. aeruginosa CDC-0095. The assay can be described thus: microbe, parasite or virus in culture. Type of assay: cell-based. The note with it: Pseudomonas aeruginosa, CDC0095, read-out: Minimum inhibitory concentration, P. aeruginosa CDC-0095.
For assay [5], the system named is N. gonorrhoeae WHO K. The assay can be described thus: Liquid broth MIC in Fastidious broth. As to conditions: Neisseria gonorrhoeae, read-out: Minimum Inhibitory Concentration, WHO K.
The test system of assay [6] is N. gonorrhoeae WHO G. As to the kind of experiment: Liquid broth MIC in Fastidious broth. The note with it: Neisseria gonorrhoeae, read-out: Minimum Inhibitory Concentration, WHO G.
Assay [7] deals with P. aeruginosa ATCC 27853. The assay can be described thus: microbe, parasite or virus in culture. The note with it: Pseudomonas aeruginosa, ATCC27853, read-out: Minimum inhibitory concentration, P. aeruginosa ATCC 27853. Type of assay: cell-based.
Assay [8] deals with A. baumannii CDC-0033. As to the kind of experiment: microbe, parasite or virus in culture. The note with it: Acinetobacter baumannii, CDC0033, read-out: MIC, A. baumannii CDC-0033. Type of assay: cell-based.
Assay [9] has as its system P. aeruginosa ATCC 35151. The assay can be described thus: microbe, parasite or virus in culture. Format: cell-based. As to conditions: Pseudomonas aeruginosa, ATCC35151, read-out: Minimum inhibitory concentration, P. aeruginosa ATCC 35151.
The subject of assay [10] is N. gonorrhoeae CDC-0197. As to the kind of experiment: Liquid broth MIC in Fastidious broth. The note with it: Neisseria gonorrhoeae, CDC0197, read-out: Minimum Inhibitory Concentration, CDC-0197.
Protocol: ATCC 49226, FA1090, MS11, WHO G, WHO L, and WHO M produce wild type or wild-type like PBP2. WHO K, WHO X, WHO Z, WHO Q, and CDC-0197 produce mosaic PBP2. Liquid broth-based assays were used for antibacterial testing of PBP inhibitors in Neisseria gonorrhoeae. Briefly, cryo-preserved bacterial cultures of clinical strains were streaked for isolation on Chocolate Agar (72 g/L (2×) GC Agar Base (BD #228950) and 2% (2×) Hemoglobin was autoclaved at 121° C. for 20 minutes to sterilize. Once cooled to ˜50° C. the 2×GC Agar Base and 2× Hemoglobin solutions are combined and 1% IsoVitaleX Enrichment (BD #211876) was added to the solution). Strains were incubated at 36° C. and 5% CO2 to allow growth of colonies, 24 hours before inoculum preparation. 2-fold serial dilutions of test compounds were conducted in a 96 well plate with a final volume of 75 μL per well at 2-fold the final desired concentration in Fastidious broth (Remel #R07664). For preparation of assay inoculum, a direct suspension was prepared by aseptically swabbing 10-15 colonies from agar plates into culture tubes containing 2 mL of fresh sterile saline. After the dilution plates were set up, direct suspensions were then diluted in a cuvette containing sterile saline and the optical density was measured at 600 nm. Inocula were diluted such that 75 μL of this culture in Fastidious broth results in a starting bacterial concentration of 5×10^5 CFU/mL when added to the dilution plates. The plates were incubated for ˜24 hours at 36° C. and 5% CO2.
The test system of assay [11] is N. gonorrhoeae WHO X. The assay can be described thus: Liquid broth MIC in Fastidious broth. The note with it: Neisseria gonorrhoeae, read-out: Minimum Inhibitory Concentration, WHO X.
Assay [12] relates to N. gonorrhoeae MS11. As to the kind of experiment: Liquid broth MIC in Fastidious broth. The note with it: Neisseria gonorrhoeae, MS11, read-out: Minimum Inhibitory Concentration, MS11.

Values after ≈ are worked out from the molar mass of the structure shown.

For the compound `O=C(NCCCN1CCN(C(=O)NC(C(=O)N[C@H]2Cc3ccc(F)c(C(=O)O)c3OB2O)c2cc(F)c(O)c(O)c2Cl)C(=O)C1=O)c1ccc(O)c(F)c1` (stereo partly drawn) [Example 304, (3R)-3-(2-(2-chloro-5-fluoro-3,4-dihydroxyphenyl)-2-(4-(3-(3-fluoro-4-hydroxybenzamido)propyl)-2,3-dioxopiperazine-1-carboxamido)acetamido)-7-fluoro-2-hydroxy-3,4-dihydro-2H-benzo[e][1,2]oxaborinine-8-carboxylic acid], the MIC in assay [1] is 1 to 2 µg/mL (≈ 1.29 to 2.57 µM); in assay [2] it was 2 to 4 µg/mL (≈ 2.57 to 5.14 µM); in [3] it was greater than 64 µg/mL; in assay [4], less than 1 µg/mL; in assay [5] it was greater than 64 µg/mL; in assay [6], 16 to 32 µg/mL (≈ 20.6 to 41.1 µM). Moreover, the MIC in [7] was 2 to 4 µg/mL (≈ 2.57 to 5.14 µM); in assay [8], 2 to 4 µg/mL (≈ 2.57 to 5.14 µM); in [9], less than 1 µg/mL; in assay [10], greater than 64 µg/mL; in assay [11] it was greater than 64 µg/mL; in [12], 16 to 32 µg/mL (≈ 20.6 to 41.1 µM).

For `O=C(NCCCN1CCN(C(=O)NC(C(=O)N[C@H]2Cc3ccc(F)c(C(=O)O)c3OB2O)c2cc(F)c(O)c(O)c2Cl)C(=O)C1=O)c1ccc(O)c(Cl)c1` (stereo partly drawn) [Example 305, (3R)-3-(2-(4-(3-(3-chloro-4-hydroxybenzamido)propyl)-2,3-dioxopiperazine-1-carboxamido)-2-(2-chloro-5-fluoro-3,4-dihydroxyphenyl)acetamido)-7-fluoro-2-hydroxy-3,4-dihydro-2H-benzo[e][1,2]oxaborinine-8-carboxylic acid], the MIC in assay [1] was 1 to 2 µg/mL (≈ 1.26 to 2.52 µM); in [2], 2 to 4 µg/mL (≈ 2.52 to 5.04 µM); in [3] it was greater than 64 µg/mL; in assay [4] it was 2 to 4 µg/mL (≈ 2.52 to 5.04 µM); in [5] it was greater than 64 µg/mL; in assay [6] it was 16 to 32 µg/mL (≈ 20.1 to 40.3 µM). Moreover, the MIC is 2 to 4 µg/mL (≈ 2.52 to 5.04 µM) in [7]; 2 to 4 µg/mL (≈ 2.52 to 5.04 µM) in assay [8]; less than 1 µg/mL in assay [9]; greater than 64 µg/mL in [10]; greater than 64 µg/mL in assay [11]; 16 to 32 µg/mL (≈ 20.1 to 40.3 µM) in assay [12].

`O=C(NCCCN1CCN(C(=O)NC(C(=O)N[C@H]2Cc3ccc(F)c(C(=O)O)c3OB2O)c2cc(F)c(O)c(O)c2Cl)C(=O)C1=O)c1ccc(O)c(F)c1F` (stereo partly drawn) [Example 306, (3R)-3-(2-(2-chloro-5-fluoro-3,4-dihydroxyphenyl)-2-(4-(3-(2,3-difluoro-4-hydroxybenzamido)propyl)-2,3-dioxopiperazine-1-carboxamido)acetamido)-7-fluoro-2-hydroxy-3,4-dihydro-2H-benzo[e][1,2]oxaborinine-8-carboxylic acid]: the MIC is 1 to 2 µg/mL (≈ 1.26 to 2.51 µM) in assay [1]; 2 to 4 µg/mL (≈ 2.51 to 5.03 µM) in [2]; greater than 64 µg/mL in assay [3]; less than 1 µg/mL in assay [4]; greater than 64 µg/mL in assay [5]; 16 to 32 µg/mL (≈ 20.1 to 40.2 µM) in assay [6]. Also, the MIC was 2 to 4 µg/mL (≈ 2.51 to 5.03 µM) in [7]; 2 to 4 µg/mL (≈ 2.51 to 5.03 µM) in assay [8]; less than 1 µg/mL in assay [9]; greater than 64 µg/mL in assay [10]; greater than 64 µg/mL in assay [11]; 16 to 32 µg/mL (≈ 20.1 to 40.2 µM) in assay [12].

As for `O=C(NCCCN1CCN(C(=O)NC(C(=O)N[C@H]2Cc3ccc(F)c(C(=O)O)c3OB2O)c2cc(F)c(O)c(O)c2Cl)C(=O)C1=O)c1ccc(O)cc1O` (stereo partly drawn) [Example 307, (3R)-3-(2-(2-chloro-5-fluoro-3,4-dihydroxyphenyl)-2-(4-(3-(2,4-dihydroxybenzamido)propyl)-2,3-dioxopiperazine-1-carboxamido)acetamido)-7-fluoro-2-hydroxy-3,4-dihydro-2H-benzo[e][1,2]oxaborinine-8-carboxylic acid], the MIC in [1] is 1 to 2 µg/mL (≈ 1.29 to 2.58 µM); in assay [2] it was 8 to 16 µg/mL (≈ 10.3 to 20.6 µM); in assay [3], greater than 64 µg/mL; in assay [4] it was less than 1 µg/mL; in [5] it was greater than 64 µg/mL; in [6], 16 to 32 µg/mL (≈ 20.6 to 41.2 µM). Besides, the MIC in assay [7] was 2 to 4 µg/mL (≈ 2.58 to 5.16 µM); in assay [8] it was 2 to 4 µg/mL (≈ 2.58 to 5.16 µM); in assay [9], less than 1 µg/mL; in assay [10] it was greater than 64 µg/mL; in assay [11], greater than 64 µg/mL; in [12], 16 to 32 µg/mL (≈ 20.6 to 41.2 µM).
